Reference: patent US9051310B2, “Nicotinamide derivative or salt thereof” (FUJIFILM Corporation, priority 2011, dated 2015)

What was measured:
[1] = molecular target: T1, glutathione S-transferase (GST)-linked full-length human Syk protein (Homo sapiens, UniProt P43405); experiment: Syk enzyme assay; assay type: biochemical; conditions: 0.83 nM Syk, time-resolved fluorescence; read-out: IC50 of Syk-inhibitory activity
T1 construct: glutathione S-transferase (GST)-linked full-length human Syk protein; purchased Carna Biosciences; host or cells: Baculovirus expression system
Method in brief: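 Phosphotyrosine on a biotin-peptide substrate (0.5 μM) was read by time-resolved fluorescence at 615 and 665 nm with Eu-anti-pTyr antibody and APC-streptavidin after 1 h EDTA stop.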

[2] = system: THP-1 cells (TNFα secretion on human IgG-coated plate); experiment: TNFα generation assay; assay type: cell-based; conditions: IFN-γ differentiated THP-1 cells, 7 hours, AlphaLISA, read-out: IC50 of TNFα generation inhibitory activity
Method in brief: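 Secreted TNFα was measured by AlphaLISA after 7 h of culture on human IgG-coated wells (coating at 10 μg/ml), with 5×10^4 cells/well. Before plating, the cells had been treated with compound for 30 min at room temperature. The cells were macrophage-like THP-1, produced by a 2-day exposure to 10 ng/ml IFN-γ.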

[3] = system: THP-1 cells (phagocytosis of opsonized Escherichia coli); experiment: Antibody-dependent phagocytosis assay; assay type: cell-based; conditions: Homo sapiens; IFNγ differentiated THP-1 cells, opsonized pHrodo Escherichia coli, 3 hours; read-out: IC50 upon phagocytosis inhibition
Method: THP-1 cells (2×10^5 cells/ml), which were human monocytoid cells, were cultured in the presence of 10 ng/ml IFNγ for 2 days, and they were induced to differentiate into macrophage-like cells. The differentiation-induced THP-1 cells were recovered, and the cells (5×10^4 cells/well) were then allowed to react with a predetermined concentration of test compound at room temperature for 30 minutes. Thereafter, Escherichia coli (Life Technologies) labeled with a pH-sensitive dye (pHrodo) was subjected to opsonization using an anti-Escherichia coli antibody (Life Technologies). Then, the resultant was added to the THP-1 cells obtained above, followed by incubation at 37° C. for 3 hours. Opsonized Escherichia coli and cell-permeable fluorescent dye (Calcein AM) were simultaneously added thereto, followed by quantitative determination of phagocytosis of opsonized Escherichia coli in viable cells using an IN Cell Analyzer.

Q: CC[C@@H](Nc1nc(Nc2ccc3c(c2)c(N(C)C)nn3C)c(C(N)=O)cc1F)[C@H](C)N [Example 2-4] was tested. Which IC50 [1] did it give?
A: The IC50 was under 0.01 µM.

Q: And the IC50 [2]?
A: Its IC50 is 0.065 to 0.13 µM.

Q: What about the IC50 [3] of the same compound?
A: The IC50 was 1 to 3 µM.

Q: Which IC50 [1] does the source give for COC[C@@H](Nc1nc(Nc2cnc(C)c(-n3nccn3)c2)c(C(N)=O)cc1F)[C@H](C)N [Example 2-197, 6-(((2S,3S)-3-amino-1-methoxybutan-2-yl)amino)-5-fluoro-2-((6-methyl-5-(2H-1,2,3-triazol-2-yl)pyridin-3-yl)amino)nicotinamide] here?
A: Its IC50 is 0.01 to 0.05 µM.

Q: What about the IC50 [3] of the same compound?
A: Its IC50 is 3 to 6 µM.

Q: Which IC50 [1] does the source give for CCC[C@@H](Nc1nc(Nc2cnc(OC)c(-n3ccnn3)c2)c(C(N)=O)cc1F)[C@H](C)N [Example 2-205, 6-(((2S,3R)-2-aminohexan-3-yl)amino)-5-fluoro-2-((6-methoxy-5-(1H-1,2,3-triazol-1-yl)pyridin-3-yl)amino)nicotinamide] here?
A: Its IC50 is 0.01 to 0.05 µM.

Q: What about the IC50 [3] of the same compound?
A: The IC50 was 1 to 3 µM.

Q: With NC(=O)c1cc(F)c(N[C@@H]2CCOC[C@@H]2N)nc1Nc1cnc(N2CCOCC2)c(F)c1 [Example 2-217, 6-(((3R,4R)-3-aminotetrahydro-2H-pyran-4-yl)amino)-5-fluoro-2-((5-fluoro-6-morpholinopyridin-3-yl)amino)nicotinamide] as the compound, how does the IC50 [1] read?
A: Its IC50 is 0.05 to 0.1 µM.

Q: What about the IC50 [3] of the same compound?
A: Its IC50 is 1 to 3 µM.

Q: Which results are given for NC(=O)c1cc(F)c(N[C@@H]2CCOC[C@@H]2N)nc1Nc1ccnc(N2CCOCC2)c1F [Example 2-231, 6-(((3R,4R)-3-aminotetrahydro-2H-pyran-4-yl)amino)-5-fluoro-2-((3-fluoro-2-morpholinopyridin-4-yl)amino)nicotinamide]?
A: IC50 [1]: 0.01 to 0.05 µM; IC50 [3]: 1 to 3 µM

Q: With CC(C)C[C@@H](Nc1nc(Nc2cc(N3CCOCC3)ncc2F)c(C(N)=O)cc1F)[C@H](C)N [Example 2-236, 6-(((2S,3R)-2-amino-5-methylhexan-3-yl)amino)-5-fluoro-2-((5-fluoro-2-morpholinopyridin-4-yl)amino)nicotinamide] as the compound, how does the IC50 [1] read?
A: The IC50 was 0.01 to 0.05 µM.

Q: And the IC50 [3]?
A: The IC50 was 1 to 3 µM.

Q: What does the source list for NC(=O)c1cc(F)c(N[C@@H]2CCCC[C@@H]2N)nc1Nc1cnc(OC(F)F)c(-n2nccn2)c1 [Example 2-238, 6-(((1R,2S)-2-aminocyclohexyl)amino)-2-((6-(difluoromethoxy)-5-(2H-1,2,3-triazol-2-yl)pyridin-3-yl)amino)-5-fluoronicotinamide]?
A: IC50 [1]: 0.01 to 0.05 µM; IC50 [3]: < 1 µM

Q: With CCCC[C@@H](Nc1nc(Nc2cnc3c(c2)c(N(C)C)nn3C)c(C(N)=O)cc1F)[C@H](C)N [Example 2-291, 6-(((2S,3R)-2-aminoheptan-3-yl)amino)-2-((3-(dimethylamino)-1-methyl-1H-pyrazolo[3,4-b]pyridin-5-yl)amino)-5-fluoronicotinamide] as the compound, how does the IC50 [1] read?
A: The IC50 was 0.01 to 0.05 µM.

Q: What about the IC50 [3] of the same compound?
A: Its IC50 is 1 to 3 µM.

Q: Which IC50 [1] does the source give for CC(C)C[C@@H](Nc1nc(Nc2cnc3c(c2)c(N(C)C)nn3C)c(C(N)=O)cc1F)[C@H](C)N [Example 2-292, 6-(((2S,3R)-2-amino-5-methylhexan-3-yl)amino)-2-((3-(dimethylamino)-1-methyl-1H-pyrazolo[3,4-b]pyridin-5-yl)amino)-5-fluoronicotinamide] here?
A: The IC50 was under 0.01 µM.

Q: What about the IC50 [3] of the same compound?
A: Its IC50 is 1 to 3 µM.

Q: For CCC[C@@H](Nc1nc(Nc2cccc3c2cnn3CCOC)c(C(N)=O)cc1F)[C@H](C)N [Example 2-305, 6-(((2S,3R)-2-aminohexan-3-yl)amino)-5-fluoro-2-((1-(2-methoxyethyl)-1H-indazol-4-yl)amino)nicotinamide], which IC50 [1] is on record?
A: Its IC50 is under 0.01 µM.

Q: And the IC50 [3]?
A: The IC50 was 1 to 3 µM.

Q: How did the IC50 [1] turn out when C[C@H](N)[C@H](Nc1nc(Nc2ccc3ncccc3c2)c(C(N)=O)cc1F)c1ccccc1 [Example 2-312, 6-(((1R,2S)-2-amino-1-phenylpropyl)amino)-5-fluoro-2-(quinolin-6-ylamino)nicotinamide] was run?
A: Its IC50 is under 0.01 µM.

Q: What about the IC50 [3] of the same compound?
A: The IC50 was under 1 µM.

Q: For Cc1ncc(Nc2nc(N[C@H](c3ccccc3)[C@H](C)N)c(F)cc2C(N)=O)cc1-n1nccn1 [Example 2-313, 6-(((1R,2S)-2-amino-1-phenylpropyl)amino)-5-fluoro-2-((6-methyl-5-(2H-1,2,3-triazol-2-yl)pyridin-3-yl)amino)nicotinamide], which IC50 [1] is on record?
A: The IC50 was under 0.01 µM.

Q: What about the IC50 [3] of the same compound?
A: Its IC50 is 3 to 6 µM.

Q: Which IC50 [1] does the source give for CC[C@@H](Nc1nc(Nc2cncc3c2cnn3CC)c(C(N)=O)cc1F)[C@H](C)N [Example 2-318, 6-(((2S,3R)-2-aminopentan-3-yl)amino)-2-((1-ethyl-1H-pyrazolo[3,4-c]pyridin-4-yl)amino)-5-fluoronicotinamide] here?
A: The IC50 was under 0.01 µM.

Q: What about the IC50 [3] of the same compound?
A: The IC50 was 1 to 3 µM.

Q: Which IC50 [1] does the source give for CCn1ncc2c(Nc3nc(N[C@H](COC)[C@H](C)N)c(F)cc3C(N)=O)cncc21 [Example 2-323, 6-(((2S,3S)-3-amino-1-methoxybutan-2-yl)amino)-2-((1-ethyl-1H-pyrazolo[3,4-c]pyridin-4-yl)amino)-5-fluoronicotinamide] here?
A: Its IC50 is 0.01 to 0.05 µM.

Q: What about the IC50 [3] of the same compound?
A: Its IC50 is 1 to 3 µM.

Q: With CCOC[C@@H](Nc1nc(Nc2cncc3c2cnn3CC)c(C(N)=O)cc1F)[C@H](C)N [Example 2-324, 6-(((2S,3S)-3-amino-1-ethoxybutan-2-yl)amino)-2-((1-ethyl-1H-pyrazolo[3,4-c]pyridin-4-yl)amino)-5-fluoronicotinamide] as the compound, how does the IC50 [1] read?
A: Its IC50 is 0.01 to 0.05 µM.

Q: And the IC50 [3]?
A: Its IC50 is under 1 µM.

Q: What does the source list for COc1ccc([C@@H](Nc2nc(Nc3cnc(C)c(-n4nccn4)c3)c(C(N)=O)cc2F)[C@H](C)N)cc1 [Example 2-338, 6-(((1R,2S)-2-amino-1-(4-methoxyphenyl)propyl)amino)-5-fluoro-2-((6-methyl-5-(2H-1,2,3-triazol-2-yl)pyridin-3-yl)amino)nicotinamide]?
A: IC50 [1]: 0.01 to 0.05 µM; IC50 [3]: < 1 µM

Q: Which IC50 [1] does the source give for CSCC[C@@H](Nc1nc(Nc2cnc(C)c(-n3nccn3)c2)c(C(N)=O)cc1F)[C@H](C)N [Example 2-343, 6-(((3R,4S)-4-amino-1-(methylthio)pentan-3-yl)amino)-5-fluoro-2-((6-methyl-5-(2H-1,2,3-triazol-2-yl)pyridin-3-yl)amino)nicotinamide] here?
A: The IC50 was 0.01 to 0.05 µM.

Q: And the IC50 [3]?
A: Its IC50 is 1 to 3 µM.

Q: What does the source list for CCC[C@@H](Nc1nc(Nc2ccc3c(c2)c(OC(F)F)nn3C)c(C(N)=O)cc1F)[C@H](C)N [Example 2-349, 6-(((2S,3R)-2-aminohexan-3-yl)amino)-2-((3-(difluoromethoxy)-1-methyl-1H-indazol-5-yl)amino)-5-fluoronicotinamide]?
A: IC50 [1]: < 0.01 µM; IC50 [3]: 1 to 3 µM

Q: What does the source list for NC[C@@H](Cc1ccccc1)Nc1nc(Nc2cnc(N3CCOCC3)c(F)c2)c(C(N)=O)cc1F [Example 2-365, (R)-6-((1-amino-3-phenylpropan-2-yl)amino)-5-fluoro-2-((5-fluoro-6-morpholinopyridin-3-yl)amino)nicotinamide]?
A: IC50 [1]: 0.05 to 0.1 µM; IC50 [3]: < 1 µM

Q: Which results are given for Cc1ncc(Nc2nc(N[C@@H]([C@H](C)N)[C@H]3CC3(C)C)c(F)cc2C(N)=O)cc1-n1nccn1 [Example 2-380, 6-(((1R,2S)-2-amino-1-((S)-2,2-dimethylcyclopropyl)propyl)amino)-5-fluoro-2-((6-methyl-5-(2H-1,2,3-triazol-2-yl)pyridin-3-yl)amino)nicotinamide]?
A: IC50 [1]: < 0.01 µM; IC50 [3]: 1 to 3 µM

Q: Which IC50 [1] does the source give for NC(=O)c1cc(F)c(N[C@@H]2CCCC[C@@H]2N)nc1Nc1cncc2c1cnn2CC(F)F [Example 2-393, 6-(((1R,2S)-2-aminocyclohexyl)amino)-2-((1-(2,2-difluoroethyl)-1H-pyrazolo[3,4-c]pyridin-4-yl)amino)-5-fluoronicotinamide] here?
A: The IC50 was under 0.01 µM.

Q: What about the IC50 [3] of the same compound?
A: The IC50 was 1 to 3 µM.

Q: Which IC50 [1] does the source give for NC(=O)c1cc(F)c(N[C@@H]2CCOC[C@@H]2N)nc1Nc1cncc2c1cnn2CC(F)F [Example 2-394, 6-(((3R,4R)-3-aminotetrahydro-2H-pyran-4-yl)amino)-2-((1-(2,2-difluoroethyl)-1H-pyrazolo[3,4-c]pyridin-4-yl)amino)-5-fluoronicotinamide] here?
A: The IC50 was under 0.01 µM.

Q: And the IC50 [3]?
A: Its IC50 is 3 to 6 µM.

Q: CCC[C@@H](Nc1nc(Nc2cncc3c2cnn3CC(F)F)c(C(N)=O)cc1F)[C@H](C)N [Example 2-397, 6-(((2S,3R)-2-aminohexan-3-yl)amino)-2-((1-(2,2-difluoroethyl)-1H-pyrazolo[3,4-c]pyridin-4-yl)amino)-5-fluoronicotinamide] was tested. Which IC50 [1] did it give?
A: Its IC50 is under 0.01 µM.

Q: What about the IC50 [3] of the same compound?
A: The IC50 was 1 to 3 µM.

Q: What does the source list for CCCC[C@@H](Nc1nc(Nc2cncc3c2cnn3CC(F)F)c(C(N)=O)cc1F)[C@H](C)N [Example 2-399, 6-(((2S,3R)-2-aminoheptan-3-yl)amino)-2-((1-(2,2-difluoroethyl)-1H-pyrazolo[3,4-c]pyridin-4-yl)amino)-5-fluoronicotinamide]?
A: IC50 [1]: < 0.01 µM; IC50 [3]: 1 to 3 µM

Q: How did the IC50 [1] turn out when CCn1ncc2c(Nc3nc(N[C@@H](CN)CC(C)C)c(F)cc3C(N)=O)cncc21 [Example 2-405, (R)-6-((1-amino-4-methylpentan-2-yl)amino)-2-((1-ethyl-1H-pyrazolo[3,4-c]pyridin-4-yl)amino)-5-fluoronicotinamide] was run?
A: The IC50 was under 0.01 µM.

Q: And the IC50 [3]?
A: The IC50 was 1 to 3 µM.

Q: Which IC50 [1] does the source give for COCCOc1cc(Nc2nc(N[C@H](Cc3ccccc3)[C@H](C)N)c(F)cc2C(N)=O)ccn1 [Example 2-427, 6-(((2R,3S)-3-amino-1-phenylbutan-2-yl)amino)-5-fluoro-2-((2-(2-methoxyethoxy)pyridin-4-yl)amino)nicotinamide] here?
A: Its IC50 is 0.01 to 0.05 µM.

Q: And the IC50 [3]?
A: The IC50 was 1 to 3 µM.
